Our source for the IC50 values is ChEMBL document CHEMBL6153083, “Synthesis, Structural Modification, and Antismall Cell Lung Cancer Activity of 3-Arylisoquinolines with Dual Inhibitory Activity on Topoisomerase I and II” (J Med Chem, 2025).

Data set [1] can be described thus: Antiproliferative activity against human BEAS-2B cells incubated for 72 hrs. It counts as toxicity, cell-based.
Another data set relates to NCI-H446. Put plainly: Antiproliferative activity against human NCI-H446 cells incubated for 72 hrs. It counts as functional, cell-based. As to conditions: NCI-H446, 72 h.
A further data set deals with NCI-H209. Put plainly: Antiproliferative activity against human NCI-H209 cells incubated for 72 hrs. It counts as functional, cell-based. The note with it: NCI-H209, 72 h.
The test system of another data set is NCI-H1048. Kind of data set: Antiproliferative activity against human NCI-H1048 cells incubated for 72 hrs. Type of data set: functional, cell-based. The note with it: NCI-H1048, 72 h.
The nature of data set [2]: Antiproliferative activity against human L02 cells incubated for 72 hrs. Type of data set: toxicity, cell-based.
Data set [3] can be described thus: Antiproliferative activity against human NCI-H196 cells incubated for 72 hrs. Type of data set: functional, cell-based. The note with it: NCI-H196, 72 h.
In another data set the test system is NCI-H146. Put plainly: Antiproliferative activity against human NCI-H146 cells incubated for 72 hrs. It counts as functional, cell-based. The note with it: NCI-H146, 72 h.
Another data set relates to NCI-H82. Kind of data set: Antiproliferative activity against human NCI-H82 cells incubated for 72 hrs. It counts as functional, cell-based. The note with it: NCI-H82, 72 h.
For the next data set, the system named is SHP77. Put plainly: Antiproliferative activity against human SHP77 cells incubated for 72 hrs. As to conditions: SHP77, 72 h. Type of data set: functional, cell-based.

Consider `CC1(O)CCN(Cc2cc3c(cc2-c2cc4ccc5c(c4cn2)OCO5)OCO3)C1` (stereo not drawn), for which the 50% inhibitory concentration (IC50) (usually the concentration at which inhibition is half-maximal) at 72 h in data set [1] was 39.7 µM; in [2] it was greater than 100 µM. For the same compound, the IC50 in the data set with NCI-H446 was 38.9 µM; in the data set with NCI-H209, 72.7 µM; in the data set with NCI-H1048 it was 35.7 µM; in data set [3], 46.4 µM; in the data set on NCI-H146, 20.2 µM; in the data set with NCI-H82, greater than 100 µM. Also, the IC50 in the data set on SHP77 was determined as 32.4 µM.
As for `c1c(CN2CC3(CCCC3)C2)c(-c2cc3ccc4c(c3cn2)OCO4)cc2c1OCO2`, the concentration for half-maximal inhibition (IC50) at 72 h in data set [1] was 14.8 µM; in data set [2], greater than 100 µM. The IC50 with NCI-H446 came out at 18.6 µM; in the data set on NCI-H209, 34.2 µM; with NCI-H1048 it was 19.9 µM; in data set [3], 15.9 µM; in the data set on NCI-H146 it was 28.7 µM; with NCI-H82, 26.6 µM. The IC50 in the data set on SHP77 came out at 31.2 µM.
Take `CC[C@@]1(O)C(=O)OCc2c1cc1n(c2=O)Cc2cc3c(CN(C)C)c(O)ccc3nc2-1` [TOPOTECAN]: the results for the concentration for half-maximal inhibition (IC50) at 72 h in [1] and in [2] were less than 0.07 µM and 0.26 µM, respectively. Further, the half-maximal inhibitory concentration (IC50) in the data set with NCI-H446 was 22 µM; in the data set on NCI-H209 it was greater than 100 µM; with NCI-H1048, greater than 100 µM; in [3], 16.3 µM; in the data set with NCI-H146, less than 1.56 µM; with NCI-H82 it was 0.41 µM. The same compound displayed a half-inhibitory concentration (IC50) in the data set on SHP77 of 0.19 µM.
With `c1c(CN2CCCCC2)c(-c2cc3ccc4c(c3cn2)OCO4)cc2c1OCO2`, the IC50 at 72 h in data set [1] is 21.2 µM; in data set [2], 25.2 µM. The IC50 with NCI-H446 is 20.2 µM; in the data set on NCI-H209, 55.6 µM; in the data set on NCI-H1048 it was 14.1 µM; in data set [3], 33.7 µM; with NCI-H146, greater than 100 µM; in the data set on NCI-H82, 27.1 µM. The compound also showed an IC50 in the data set with SHP77 of 30.2 µM.
With `OC1CCCN(Cc2cc3c(cc2-c2cc4ccc5c(c4cn2)OCO5)OCO3)CC1` (stereo not drawn), the values for the half-maximal inhibitory concentration (IC50) at 72 h in data set [1] and in [2] were 21.1 µM and 37.4 µM, respectively. Besides, the half-maximal inhibitory concentration (IC50) was 45.9 µM in the data set on NCI-H446; 47.5 µM with NCI-H209; 21 µM in the data set on NCI-H1048; 38.7 µM in [3]; 30.9 µM in the data set with NCI-H146; 30 µM in the data set on NCI-H82. In addition, in the data set on SHP77, the IC50 stood at 28.4 µM.
As to `c1c(CN2CCCC2)c(-c2cc3ccc4c(c3cn2)OCO4)cc2c1OCO2`, the half-maximal inhibitory concentration (IC50) at 72 h was 29 µM in [1] and 33.6 µM in data set [2]. In addition, the half-maximal inhibitory concentration (IC50) amounted to 39.8 µM in the data set with NCI-H446; 81.2 µM in the data set with NCI-H209; 25.3 µM with NCI-H1048; 34.3 µM in data set [3]; 42.6 µM in the data set on NCI-H146; 59.7 µM with NCI-H82. This compound displayed an IC50 in the data set with SHP77 of 28.8 µM.
Regarding `COCC1CCN(Cc2cc3c(cc2-c2cc4ccc5c(c4cn2)OCO5)OCO3)CC1`, the IC50 at 72 h in [1] is 28.2 µM; in [2], 48.4 µM. The IC50 in the data set with NCI-H446 came out at 39.3 µM; with NCI-H209, 53.1 µM; in the data set on NCI-H1048, 44.1 µM; in data set [3], 45.7 µM; in the data set on NCI-H146 it was 37.1 µM; with NCI-H82, 55.6 µM. The half-inhibitory concentration (IC50) in the data set on SHP77 was 38.5 µM.
For the compound `CN1CCC(C2CCN(Cc3cc4c(cc3-c3cc5ccc6c(c5cn3)OCO6)OCO4)CC2)CC1`, the IC50 at 72 h in [1] was 12.2 µM; in [2] it was greater than 100 µM. For the same compound, the half-maximal inhibitory concentration (IC50) in the data set on NCI-H446 worked out at 16.9 µM; with NCI-H209, 26.8 µM; in the data set on NCI-H1048 it was 20.2 µM; in data set [3], 31.8 µM; in the data set on NCI-H146, 11.7 µM; with NCI-H82 it was 12.4 µM. The IC50 with SHP77 turned out to be 15.7 µM.
As to `O=C1CCC2CCN(Cc3cc4c(cc3-c3cc5ccc6c(c5cn3)OCO6)OCO4)CN12` (stereo not drawn), the half-maximal inhibitory concentration (IC50) at 72 h in [1] was greater than 100 µM; in data set [2], 84.6 µM. The IC50 was 49.6 µM in the data set with NCI-H446; greater than 100 µM in the data set on NCI-H209; greater than 100 µM with NCI-H1048; 78.2 µM in data set [3]; 63 µM in the data set with NCI-H146; 73.2 µM with NCI-H82. For the same compound, inhibition in the data set on SHP77 was half-maximal at 36 µM (IC50).
`CC1(C)CCN(Cc2cc3c(cc2-c2cc4ccc5c(c4cn2)OCO5)OCO3)C1`: the IC50 at 72 h in data set [1] came to 17 µM; in data set [2], 24.8 µM. In addition, the half-inhibitory concentration (IC50) amounted to 12.5 µM in the data set with NCI-H446; 30.7 µM in the data set on NCI-H209; 7.22 µM in the data set on NCI-H1048; 13.9 µM in [3]; 14 µM in the data set on NCI-H146; 15 µM in the data set with NCI-H82. This compound registered an IC50 with SHP77 of 16.3 µM.
`CC1(C)CCN(Cc2cc3c(cc2-c2cc4ccc5c(c4cn2)OCO5)OCO3)CC1`: the 50% inhibitory concentration (IC50) at 72 h in [1] and in [2] was greater than 100 µM each time. Besides, the IC50 in the data set with NCI-H446 is 55.7 µM; in the data set on NCI-H209, greater than 100 µM; in the data set with NCI-H1048, greater than 100 µM; in data set [3], greater than 100 µM; in the data set on NCI-H146, greater than 100 µM; in the data set on NCI-H82, greater than 100 µM. In addition, the IC50 with SHP77 is greater than 100 µM.
Regarding `CC1CCN(Cc2cc3c(cc2-c2cc4ccc5c(c4cn2)OCO5)OCO3)CC1`, the half-inhibitory concentration (IC50) at 72 h in data set [1] stood at 23.7 µM; in data set [2] it was 34.9 µM. Moreover, the half-inhibitory concentration (IC50) in the data set with NCI-H446 was 42.7 µM; in the data set on NCI-H209, 55.8 µM; in the data set with NCI-H1048, 12.3 µM; in data set [3] it was 26.3 µM; in the data set on NCI-H146, 44.1 µM; in the data set on NCI-H82, 25.7 µM. In the data set with SHP77, the half-inhibitory concentration (IC50) was determined as 31.1 µM.
Turning to `c1c(CN2CCCCCCCC2)c(-c2cc3ccc4c(c3cn2)OCO4)cc2c1OCO2`, the IC50 at 72 h in [1] is 17 µM; in data set [2], 24.8 µM. Moreover, the IC50 is 12.5 µM in the data set with NCI-H446; 30.7 µM in the data set with NCI-H209; 7.22 µM in the data set with NCI-H1048; 13.9 µM in data set [3]; 14 µM in the data set on NCI-H146; 15 µM in the data set on NCI-H82. Inhibition in the data set on SHP77 was half-maximal at 16.3 µM (IC50).
In the case of `OCC1CN(Cc2cc3c(cc2-c2cc4ccc5c(c4cn2)OCO5)OCO3)C1`, the IC50 at 72 h in data set [1] is 23 µM; in data set [2] it was greater than 100 µM. For the same compound, the IC50 is 60.7 µM with NCI-H446; 79.5 µM with NCI-H209; 61.4 µM in the data set with NCI-H1048; 42.5 µM in data set [3]; greater than 100 µM with NCI-H146; 80.3 µM in the data set on NCI-H82. In the data set with SHP77, this compound displayed an IC50 of 63.4 µM.
Regarding `CC(C)C1CCN(Cc2cc3c(cc2-c2cc4ccc5c(c4cn2)OCO5)OCO3)CC1`, the values for the IC50 at 72 h in [1] and in [2] were greater than 100 µM and 18.2 µM, respectively. Moreover, the IC50 with NCI-H446 was 2.65 µM; in the data set with NCI-H209, 6.92 µM; in the data set with NCI-H1048, 2.21 µM; in [3], 14.5 µM; in the data set with NCI-H146 it was less than 6.25 µM; in the data set with NCI-H82 it was 1.7 µM. The compound further showed a concentration for half-maximal inhibition (IC50) in the data set with SHP77 of 8.17 µM.
On to `CC(O)C1CCN(Cc2cc3c(cc2-c2cc4ccc5c(c4cn2)OCO5)OCO3)CC1` (stereo not drawn), for which the IC50 at 72 h in data set [1] came out at 21.8 µM; in data set [2], 30.3 µM. Further, the IC50 in the data set with NCI-H446 was determined as 27.5 µM; in the data set on NCI-H209, 62.2 µM; in the data set on NCI-H1048, 38.2 µM; in data set [3], 32.3 µM; in the data set on NCI-H146 it was 24.4 µM; in the data set with NCI-H82 it was 47.7 µM. In the data set on SHP77, this compound gave an IC50 of 28.4 µM.
In the case of `FC(F)(F)C1CCN(Cc2cc3c(cc2-c2cc4ccc5c(c4cn2)OCO5)OCO3)CC1`, the results for the IC50 at 72 h in data set [1] and in data set [2] were greater than 100 µM and 56.3 µM, respectively. Moreover, the IC50 in the data set with NCI-H446 was 15.5 µM; in the data set with NCI-H209 it was greater than 100 µM; with NCI-H1048, greater than 100 µM; in [3], 34.5 µM; with NCI-H146, 39.8 µM; in the data set with NCI-H82, greater than 100 µM. In the data set on SHP77, this compound showed a concentration for half-maximal inhibition (IC50) of 25.4 µM.
